Columns and labels:
[1] = molecular target: T1, ABCG2 (Homo sapiens, UniProt Q9UNQ0); test: vanadate-sensitive ATPase assay in ABCG2 membranes (stimulation); format: cell-based; design: full-length human ABCG2 in membranes of transfected HEK293 cells
T1 sequence (Q9UNQ0 1-655): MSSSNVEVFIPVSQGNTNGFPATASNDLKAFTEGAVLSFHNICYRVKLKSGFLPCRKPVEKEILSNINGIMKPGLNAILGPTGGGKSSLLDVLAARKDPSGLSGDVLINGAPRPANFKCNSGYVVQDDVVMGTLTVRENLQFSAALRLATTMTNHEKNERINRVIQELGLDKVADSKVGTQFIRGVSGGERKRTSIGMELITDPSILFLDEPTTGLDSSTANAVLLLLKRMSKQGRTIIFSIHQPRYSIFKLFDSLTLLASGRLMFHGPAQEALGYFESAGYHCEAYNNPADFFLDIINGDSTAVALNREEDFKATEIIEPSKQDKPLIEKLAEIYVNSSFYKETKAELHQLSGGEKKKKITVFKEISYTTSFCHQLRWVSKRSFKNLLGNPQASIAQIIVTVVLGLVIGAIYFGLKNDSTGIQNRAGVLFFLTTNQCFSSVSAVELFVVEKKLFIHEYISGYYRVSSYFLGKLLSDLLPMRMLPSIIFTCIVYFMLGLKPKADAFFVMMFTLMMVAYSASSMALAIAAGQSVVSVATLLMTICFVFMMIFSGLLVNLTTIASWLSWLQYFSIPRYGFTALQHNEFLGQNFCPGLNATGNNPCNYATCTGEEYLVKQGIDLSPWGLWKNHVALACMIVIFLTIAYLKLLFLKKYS

[2] = molecular target: T1, ABCG2; test: vanadate-sensitive ATPase assay in ABCG2 membranes (stimulation up to […]); also inhibition of [3H]-mitoxantrone efflux at […]; format: cell-based; design: full-length human ABCG2 in membranes of transfected HEK293 cells; details: read-out: vanadate-sensitive ATPase assay in ABCG2 membranes (stimulation up to 4.3-fold)
[3] = molecular target: T1, ABCG2

In the case of `CC[C@@]1(O)C(=O)OCc2c1cc1n(c2=O)Cc2cc3c(CN(C)C)c(O)ccc3nc2-1` [topotecan], the “vanadate-sensitive ATPase assay in ABCG2 membranes (stimulation)” value [1] is reported as “Compared with the ABCG2 substrate topotecan, which is also an ABCG2 ATPase stimulator, AZ-628 showed stronger activation effects”.
In the case of `Cc1ccc(NC(=O)c2cccc(C(C)(C)C#N)c2)cc1Nc1ccc2ncn(C)c(=O)c2c1` [AZ-628], the maximal fold induction [2] is reported as 4.3.
In the case of `O=C1c2c(O)ccc(O)c2C(=O)c2c(NCCNCCO)ccc(NCCNCCO)c21` [mitoxantrone], the “[3H]-mitoxantrone efflux from ABCG2-overexpressing cells” value [3] is reported as “plotted to reflect the efflux of [^3H]-mitoxantrone by ABCG2”.
In the case of `COc1ccc([C@@H](O)c2cc(-c3ncnc4cc(N5CCOCC5)ccc34)c(F)cc2Cl)nn1` [M3814], the “vanadate-sensitive ATPase assay in ABCG2 membranes (stimulation)” value [1] is reported as “The results showed that AZ-628 stimulated ABCG2 ATPase to a higher level than M3814”.
